Patent US9598362B2, “Benzidine derivative, method for preparing same, and pharmaceutical composition containing benzidine derivative for treating liver disease caused by hepatitis C virus” (priority 2013, dated 2017)
Where two headings read alike, the source gives them in different places.

Assays:
HCV replicon NK/R2AN = assay: Evaluation of anti-HCV activity 2: inhibition of HCV replication, huh7.5.1 cells with replicon NK/R2AN, renilla luciferase; format: cell-based; conditions: for EC50: Hepatitis C virus; for EC50 (in words): duplicated HCV treated with compound
Description: To evaluate the anti-HCV activity, that is the activity to inhibit HCV replication, of the compound represented by formula 1 of the present invention, the following experiment was performed.
The hepatoma cell line huh7.5.1 having NK/R2AN, the replicon with which the replication and translation of HCV could be measured, was distributed in a 12-well cell culture plate at the density of 50,000 cells/well. The cells were cultured in DMEM (Dulbecco's Modified Eagle's Medium 12800-017, GIBCO Co.) supplemented with 10% (v/v) FBS (Fetal Bovine Serum SH30406.02, Hyclone Co.), 1% (v/v) antibiotics (penicillin/streptomycin solution SV30010, Hyclone Co.), and G418 (600 μg/mL, Calbiochem) in a 37° C. 6.0% CO2 incubator (CO2 Incubator 311, Forma Scientific Co, Lnc. USA) for 24 hours to lead cell attachment on the plate. Then, the cells were inoculated with HCV having renilla luciferase gene as a reporter for 3 hours. Upon completion of the virus inoculation, the cell culture medium was replaced with the medium containing the compounds prepared in Examples 1˜24 were added to the culture medium at the concentrations of 40 pM˜1 μM each. The cells were cultured in a 37° C. 6.0% CO2 incubator (CO2 Incubator 311, Forma Scientific Co, Lnc. USA) for 3 days. Three days after the infection, the cell culture medium was collected to measure the cytotoxicity in the following Experimental Example 3. The cells attached on the plate were washed with PBS (phosphate buffered saline) and then lysed by treating 100 μl of 1× passive lysis buffer (Promega, E1941). The cell lysate (10 μl) was added to renilla luciferase assay reagent (50 μl) in renilla luciferase assay system (Promega, E2820), followed by measurement of luminescence for 10 seconds using the luciferase measure program with Luminometer (GLOMAX 20/20 Luminometer, Promega). At this time, the measurement of luminescence was performed in triplicate with the groups treated with the compounds of Examples 1˜24 and the non-treated control group. The mean value was calculated and compared. The luminescence of each compound over the concentration was converted into EC50 (half maximal effective concentration) by using sigma plot program, and the results are shown in Table 3. At this time, when EC50 was under 100 pM, it was marked as A; when EC50 was in the range of 100 pM 1 nM, it was marked as B; when EC50 was in the range of 1 nM˜100 nM, it was marked as C; and when EC50 was over 100 nM, it was marked as D. The results are shown in Table 3.

HCV (JFH-5aFlucm4) = assay: Evaluation of anti-HCV activity 1: huh7.5.1 cells inoculated with HCV carrying renilla luciferase reporter; format: cell-based; conditions: Hepatitis C virus
Description: To evaluate the anti-HCV activity of the compound represented by formula 1 of the present invention, the following experiment was performed.
The hepatoma cell line huh7.5.1 was distributed in a 12-well cell culture plate at the density of 50,000 cells/well. The cells were cultured in DMEM (Dulbecco's Modified Eagle's Medium 12800-017, GIBCO Co.) supplemented with 10% (v/v) FBS (Fetal Bovine Serum SH30406.02, Hyclone Co.) and 1% (v/v) antibiotics (penicillin/streptomycin solution SV30010, Hyclone Co.) in a 37° C. 6.0% CO2 incubator (CO2 Incubator 311, Forma Scientific Co, Lnc. USA) for 24 hours to lead cell attachment on the plate. Then, the cells were inoculated with HCV (JFH-5aFlucm4, PLoS One. 2011; 6(8):e228808.) having renilla luciferase gene as a reporter for 3 hours. Upon completion of the virus inoculation, the cell culture medium was replaced with the medium containing the compounds prepared in Examples 1˜24 at the concentration of 1 μM each. The cells were cultured in a 37° C. 6.0% CO2 incubator (CO2 Incubator 311, Forma Scientific Co, Lnc. USA) for 3 days. Three days after the infection, the cell culture medium was collected to measure the cytotoxicity in the following Experimental Example 3. The cells attached on the plate were washed with PBS (phosphate buffered saline) and then lysed by treating 100 μl of 1× passive lysis buffer (Promega, E1941). The cell lysate (10 μl) was added to renilla luciferase assay reagent (50 μl) in renilla luciferase assay system (Promega, E2820), followed by measurement of luminescence for 10 seconds using the luciferase measure program with Luminometer (GLOMAX 20/20 Luminometer, Promega). At this time, the measurement of luminescence was performed in triplicate with the groups treated with the compounds of Examples 1˜24 and the non-treated control group. The mean value was calculated and compared. The luminescence of each compound over the concentration was converted into EC50 (half maximal effective concentration) by using sigma plot program, and the results are shown in Table 2.

[1] = Huh-7.5.1, 72 h, read-out: EC50 grade
[2] = Huh-7.5.1, replicon huh7.5.1 cells, Table 3, read-out: EC50

| Compound | EC50 (HCV replicon NK/R2AN; [1]) | EC50 (HCV (JFH-5aFlucm4); [1]) | EC50 (HCV replicon NK/R2AN; [2]) | EC50 (in words) (HCV replicon NK/R2AN) | EC50 (HCV (JFH-5aFlucm4); Huh-7.5.1) | EC50 (HCV replicon NK/R2AN; Huh-7.5.1) |
| --- | --- | --- | --- | --- | --- | --- |
| COC(=O)N[C@@H](C(=O)N1CCC[C@H]1C(=O)Nc1ccc(-c2ccc(NC(=O)[C@@H]3CCCN3C(=O)[C@H](NC(=O)OC)c3ccccc3)c(C)c2)cc1C)c1ccccc1 [Example 1, dimethyl((1R,1′R)-((2S,2′S)-2,2′-(((3,3′-dimethyl-[1,1′-biphenyl]-4,4′-diyl)bis(azandiyl))bis(carbonyl))bis(pyrrolidine-2,1-diyl))bis(2-oxo-1-phenylethane-2,1-diyl))dicarbamate] | 1 to 100 nM | > 100 nM |  |  |  |  |
| COC(=O)N[C@@H](C(=O)N1CCC[C@H]1C(=O)Nc1ccc(-c2ccc(NC(=O)[C@@H]3CCCN3C(=O)[C@H](NC(=O)OC)c3ccccc3)cc2C(F)(F)F)c(C(F)(F)F)c1)c1ccccc1 [Example 2, dimethyl((1R,1′R)-((2S,2′S)-2,2′-(((2,2′-bis(trifluoromethyl)-[1,1′-biphenyl]-4,4′-diyl)bis(azandiyl))bis(carbonyl))bis(pyrrolidine-2,1-diyl))bis(2-oxo-1-phenylethane-2,1-diyl))dicarbamate] | < 0.1 nM | < 1 nM | < 0.1 nM | significantly low | < 1 nM |  |
| COC(=O)N[C@@H](C(=O)N1CCC[C@H]1C(=O)Nc1ccc(-c2ccc(NC(=O)[C@@H]3CCCN3C(=O)[C@H](NC(=O)OC)c3ccccc3)cc2C)c(C)c1)c1ccccc1 [Example 3, dimethyl((1R,1′R)-((2S,2′S)-2,2′-(((2,2′-dimethyl-[1,1′-biphenyl]-4,4′-diyl)bis(azandiyl))bis(carbonyl))bis(pyrrolidine-2,1-diyl))bis(2-oxo-1-phenylethane-2,1-diyl))dicarbamate] | < 0.1 nM | < 1 nM | < 0.1 nM | significantly low | < 1 nM |  |
| COC(=O)N[C@@H](C(=O)N1CCC[C@H]1C(=O)Nc1ccc2c(c1)Cc1cc(NC(=O)[C@@H]3CCCN3C(=O)[C@H](NC(=O)OC)c3ccccc3)ccc1-2)c1ccccc1 [Example 4, dimethyl((1R,1′R)-((2S,2′S)-2,2′-(((9H-fluorene-2,7-diyl)bis(azandiyl))bis(carbonyl))bis(pyrrolidine-2,1-diyl))bis(2-oxo-1-phenylethane-2,1-diyl))dicarbamate] | < 0.1 nM | 1 to 100 nM |  | significantly low |  | < 0.1 nM |
| COC(=O)N[C@@H](C(=O)N1CCC[C@H]1C(=O)Nc1ccc(-c2ccc(NC(=O)[C@@H]3CCCN3C(=O)[C@H](NC(=O)OC)c3ccccc3)cc2F)c(F)c1)c1ccccc1 [Example 5, dimethyl((1R,1′R)-((2S,2′S)-2,2′-(((2,2′-difluoro-[1,1′-biphenyl]-4,4′-diyl)bis(azandiyl))bis(carbonyl))bis(pyrrolidine-2,1-diyl))bis(2-oxo-1-phenylethane-2,1-diyl))dicarbamate] | < 0.1 nM | < 1 nM | < 0.1 nM | significantly low | < 1 nM |  |
| COC(=O)N[C@@H](C(=O)N1CCC[C@H]1C(=O)Nc1ccc(-c2ccc(NC(=O)[C@@H]3CCCN3C(=O)[C@H](NC(=O)OC)c3ccccc3)cc2Cl)c(Cl)c1)c1ccccc1 [Example 6, dimethyl((1R,1′R)-((2S,2′S)-2,2′-(((2,2′-dichloro-[1,1′-biphenyl]-4,4′-diyl)bis(azandiyl))bis(carbonyl))bis(pyrrolidine-2,1-diyl))bis(2-oxo-1-phenylethane-2,1-diyl))dicarbamate] | < 0.1 nM | < 1 nM | < 0.1 nM | significantly low | < 1 nM |  |
| COC(=O)N[C@@H](C(=O)N1CCC[C@H]1C(=O)Nc1ccc(-c2ccc(NC(=O)[C@@H]3CCCN3C(=O)[C@H](NC(=O)OC)c3ccccc3)cc2Br)c(Br)c1)c1ccccc1 [Example 7, dimethyl((1R,1′R)-((2S,2′S)-2,2′-(((2,2′-dibromo-[1,1′-biphenyl]-4,4′-diyl)bis(azandiyl))bis(carbonyl))bis(pyrrolidine-2,1-diyl))bis(2-oxo-1-phenylethane-2,1-diyl))dicarbamate] | < 0.1 nM | < 1 nM | < 0.1 nM | significantly low | < 1 nM |  |
| COC(=O)N[C@@H](C(=O)N1CCC[C@@H]1C(=O)Nc1ccc(-c2ccc(NC(=O)[C@H]3CCCN3C(=O)[C@H](NC(=O)OC)c3ccccc3)cc2)cc1)c1ccccc1 [Example 8, dimethyl((1R,1′R)-((2R,2′R)-2,2′-(([1,1′-biphenyl]-4,4′-diylbis(azandiyl))bis(carbonyl))bis(pyrrolidine-2,1-diyl))bis(2-oxo-1-phenylethane-2,1-diyl))dicarbamate] | 1 to 100 nM | > 100 nM |  |  |  |  |
| COC(=O)N[C@@H](C(=O)N1CC(=O)C[C@H]1C(=O)Nc1ccc(-c2ccc(NC(=O)[C@@H]3CC(=O)CN3C(=O)[C@H](NC(=O)OC)c3ccccc3)cc2)cc1)c1ccccc1 [Example 9, dimethyl((1R,1′R)-((5S,5′S)-5,5′-(([1,1′-biphenyl]-4,4′-diylbis(azandiyl))bis(carbonyl))bis(3-oxopyrrolidine-5,1-diyl))bis(2-oxo-1-phenylethane-2,1-diyl))dicarbamate] | < 0.1 nM | < 1 nM |  | significantly low | < 1 nM | < 0.1 nM |
| COC(=O)N[C@@H](C(=O)N1CCCC[C@H]1C(=O)Nc1ccc(-c2ccc(NC(=O)[C@@H]3CCCCN3C(=O)[C@H](NC(=O)OC)c3ccccc3)cc2)cc1)c1ccccc1 [Example 10, dimethyl((1R,1′R)-((2S,2′S)-2,2′-(([1,1′-biphenyl]-4,4′-diylbis(azandiyl))bis(carbonyl))bis(piperidine-2,1-diyl))bis(2-oxo-1-phenylethane-2,1-diyl))dicarbamate] | 1 to 100 nM | > 100 nM |  |  |  |  |
| COC(=O)N[C@@H](C(=O)N1CCCC[C@@H]1C(=O)Nc1ccc(-c2ccc(NC(=O)[C@H]3CCCCN3C(=O)[C@H](NC(=O)OC)c3ccccc3)cc2)cc1)c1ccccc1 [Example 11, dimethyl((1R,1′R)-((2R,2′R)-2,2′-(([1,1′-biphenyl]-4,4′-diylbis(azandiyl))bis(carbonyl))bis(piperidine-2,1-diyl))bis(2-oxo-1-phenylethane-2,1-diyl))dicarbamate] | > 100 nM | > 100 nM |  |  |  |  |
| COC(=O)N[C@@H](C(=O)N1CCC[C@]1(C)C(=O)Nc1ccc(-c2ccc(NC(=O)[C@@]3(C)CCCN3C(=O)[C@H](NC(=O)OC)c3ccccc3)cc2)cc1)c1ccccc1 [Example 12, dimethyl((1R,1′R)-((2S,2′S)-2,2′-(([1,1′-biphenyl]-4,4′-diylbis(azandiyl))bis(carbonyl))bis(2-methylpyrrolidine-2,1-diyl))bis(2-oxo-1-phenylethane-2,1-diyl))dicarbamate] | 1 to 100 nM | > 100 nM |  |  |  |  |
